Results taken from PubChem BioAssay AID2060624 (Molecular Pharmacology Branch, DTP, NCI, 2025).

Tested on: 217524-143-R1-J4-PDC spheroids with HUVEC/MSC, viability
Test: Anticancer human tumor 217524-143-R1-J4-PDC patient-derived pancreatic carcinoma cell line growth inhibition [CLK]
Details: for IC50: curve of first compound; for viability, T/C: stronger effect = lower value
Procedure, shortened: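 Patient-derived tumor cells grown as complex spheroids with HUVEC endothelial cells and mesenchymal stem cells, treated with drug combinations. Concentrations descend in half-log steps from near clinical Cmax, or from 10 microM if Cmax unknown.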
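Note: spheroids exposed to agents for seven days before reading.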
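Throughout, for viability, T/C: 100% = DMSO vehicle control viability.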

C=CC(=O)Nc1cc(Nc2nccc(-c3cn(C)c4ccccc34)n2)c(OC)cc1N(C)CCN(C)C + CNC(=O)c1ccc(Nc2nc(OC3CCCC3)c3c(-c4ccc5nc(C)oc5c4)c[nH]c3n2)c(OC)c1 gave an IC50 (second compound 0.0316 µM) of 61.3 nM, an IC50 (second compound 0.1 µM) of under 0.949 nM and an IC50 (second compound 0.316 µM) of under 0.949 nM. For the same compound, the IC50 (second compound 1 µM) was under 0.949 nM, the IC50 (second compound 3.16 µM) was under 0.949 nM and the IC50 (second compound 10 µM) was under 0.949 nM. The viability, T/C (second compound 0.0316 µM, first compound 0.000949 µM) was 92%, the viability, T/C (second compound 0.0316 µM, first compound 0.003 µM) was 83.9% and the viability, T/C (second compound 0.0316 µM, first compound 0.00949 µM) was 66.6%. It also gave a viability, T/C (second compound 0.0316 µM, first compound 0.03 µM) of 64.7%, a viability, T/C (second compound 0.0316 µM, first compound 0.0949 µM) of 41.2% and a viability, T/C (second compound 0.0316 µM, first compound 0.3 µM) of 31.4%. The viability, T/C (second compound 0.1 µM, first compound 0.000949 µM) was 47.9%, the viability, T/C (second compound 0.1 µM, first compound 0.003 µM) was 38.6% and the viability, T/C (second compound 0.1 µM, first compound 0.00949 µM) was 41.9%. It also gave a viability, T/C (second compound 0.1 µM, first compound 0.03 µM) of 31.2%, a viability, T/C (second compound 0.1 µM, first compound 0.0949 µM) of 22% and a viability, T/C (second compound 0.1 µM, first compound 0.3 µM) of 17.1%. It also gave a viability, T/C (second compound 0.316 µM, first compound 0.000949 µM) of 39.3%, a viability, T/C (second compound 0.316 µM, first compound 0.003 µM) of 39.4% and a viability, T/C (second compound 0.316 µM, first compound 0.00949 µM) of 34%. The viability, T/C (second compound 0.316 µM, first compound 0.03 µM) was 28.7%, the viability, T/C (second compound 0.316 µM, first compound 0.0949 µM) was 16% and the viability, T/C (second compound 0.316 µM, first compound 0.3 µM) was 16%. It also gave a viability, T/C (second compound 1 µM, first compound 0.000949 µM) of 31.5%, a viability, T/C (second compound 1 µM, first compound 0.003 µM) of 28.3% and a viability, T/C (second compound 1 µM, first compound 0.00949 µM) of 25.9%. The viability, T/C (second compound 1 µM, first compound 0.03 µM) was 18%, the viability, T/C (second compound 1 µM, first compound 0.0949 µM) was 13.3% and the viability, T/C (second compound 1 µM, first compound 0.3 µM) was 9.6%. The viability, T/C (second compound 3.16 µM, first compound 0.000949 µM) was 31.4%, the viability, T/C (second compound 3.16 µM, first compound 0.003 µM) was 28.3% and the viability, T/C (second compound 3.16 µM, first compound 0.00949 µM) was 24.9%. For the same compound, the viability, T/C (second compound 3.16 µM, first compound 0.03 µM) was 19.2%, the viability, T/C (second compound 3.16 µM, first compound 0.0949 µM) was 12.5% and the viability, T/C (second compound 3.16 µM, first compound 0.3 µM) was 8.29%. It also gave a viability, T/C (second compound 10 µM, first compound 0.000949 µM) of 26.6%, a viability, T/C (second compound 10 µM, first compound 0.003 µM) of 22.3% and a viability, T/C (second compound 10 µM, first compound 0.00949 µM) of 24.7%. It also gave a viability, T/C (second compound 10 µM, first compound 0.03 µM) of 20.1%, a viability, T/C (second compound 10 µM, first compound 0.0949 µM) of 13% and a viability, T/C (second compound 10 µM, first compound 0.3 µM) of 9.91%.

CC1(C)CCC(CN2CCN(c3ccc(C(=O)NS(=O)(=O)c4ccc(NCC5CCOCC5)c([N+](=O)[O-])c4)c(Oc4cnc5[nH]ccc5c4)c3)CC2)=C(c2ccc(Cl)cc2)C1 + CNC(=O)c1ccc(Nc2nc(OC3CCCC3)c3c(-c4ccc5nc(C)oc5c4)c[nH]c3n2)c(OC)c1 was tested, and the IC50 (second compound 0.0316 µM) was over 10000 nM, the IC50 (second compound 0.1 µM) was under 31.6 nM and the IC50 (second compound 0.316 µM) was under 31.6 nM. The IC50 (second compound 1 µM) was under 31.6 nM, the IC50 (second compound 3.16 µM) was under 31.6 nM and the IC50 (second compound 10 µM) was under 31.6 nM. The viability, T/C (second compound 0.0316 µM, first compound 0.0316 µM) was 86.2%, the viability, T/C (second compound 0.0316 µM, first compound 0.1 µM) was 87.7% and the viability, T/C (second compound 0.0316 µM, first compound 0.316 µM) was 81.2%. The viability, T/C (second compound 0.0316 µM, first compound 1 µM) was 79%, the viability, T/C (second compound 0.0316 µM, first compound 3.16 µM) was 88.5% and the viability, T/C (second compound 0.0316 µM, first compound 10 µM) was 79.3%. It also gave a viability, T/C (second compound 0.1 µM, first compound 0.0316 µM) of 42.1%, a viability, T/C (second compound 0.1 µM, first compound 0.1 µM) of 45% and a viability, T/C (second compound 0.1 µM, first compound 0.316 µM) of 38.1%. The viability, T/C (second compound 0.1 µM, first compound 1 µM) was 46.1%, the viability, T/C (second compound 0.1 µM, first compound 3.16 µM) was 39.1% and the viability, T/C (second compound 0.1 µM, first compound 10 µM) was 37.7%. It also gave a viability, T/C (second compound 0.316 µM, first compound 0.0316 µM) of 34.1%, a viability, T/C (second compound 0.316 µM, first compound 0.1 µM) of 40.7% and a viability, T/C (second compound 0.316 µM, first compound 0.316 µM) of 38.7%. It also gave a viability, T/C (second compound 0.316 µM, first compound 1 µM) of 38.2%, a viability, T/C (second compound 0.316 µM, first compound 3.16 µM) of 36.9% and a viability, T/C (second compound 0.316 µM, first compound 10 µM) of 37.1%. The viability, T/C (second compound 1 µM, first compound 0.0316 µM) was 24.4%, the viability, T/C (second compound 1 µM, first compound 0.1 µM) was 29.3% and the viability, T/C (second compound 1 µM, first compound 0.316 µM) was 31.6%. For the same compound, the viability, T/C (second compound 1 µM, first compound 1 µM) was 27.4%, the viability, T/C (second compound 1 µM, first compound 3.16 µM) was 31.4% and the viability, T/C (second compound 1 µM, first compound 10 µM) was 25.9%. The viability, T/C (second compound 3.16 µM, first compound 0.0316 µM) was 27.4%, the viability, T/C (second compound 3.16 µM, first compound 0.1 µM) was 28.9% and the viability, T/C (second compound 3.16 µM, first compound 0.316 µM) was 24.1%. The viability, T/C (second compound 3.16 µM, first compound 1 µM) was 27.2%, the viability, T/C (second compound 3.16 µM, first compound 3.16 µM) was 29.1% and the viability, T/C (second compound 3.16 µM, first compound 10 µM) was 22.3%. It also gave a viability, T/C (second compound 10 µM, first compound 0.0316 µM) of 23.1%, a viability, T/C (second compound 10 µM, first compound 0.1 µM) of 25.7% and a viability, T/C (second compound 10 µM, first compound 0.316 µM) of 24.9%. It also gave a viability, T/C (second compound 10 µM, first compound 1 µM) of 26.4%, a viability, T/C (second compound 10 µM, first compound 3.16 µM) of 26.7% and a viability, T/C (second compound 10 µM, first compound 10 µM) of 24.9%.
